The results in this text go back to patent US12102639B2, “Imipridones for gliomas” (Oncoceutics, Inc., priority 2017, dated 2024).

The structures appear in SMILES notation. “Also recorded” adds a separate entry of the source.

In one data set the test system is human cancer cells. As to the kind of experiment: Viability of human cancer cells at 72 hours post-treatment. The format is cell-based. To be noted: relative to the potency of ONC201; viability at 72 hours post-treatment. As to the method: A number of imipridones were prepared based on the syntheses above. Viability of human cancer cells was measured at 72 hours post-treatment with each compound.

The subject of another data set is HCT116 cells. The experiment in a line: Anticancer efficacy in HCT116 cells. The following applies: HCT116, nanomolar concentrations (FIG. 8). It counts as cell-based, human.
Data set [1] concerns human colon cancer xenograft. The experiment in a line: Human colon cancer xenograft-bearing mice. The format is in vivo. The following applies: xenograft mouse models of colorectal and breast cancer (FIG. 10).
In data set [2] the test system is NCI60 cancer cell line panel. The experiment in a line: NCI60 cancer cell line panel. It counts as cell-based. The following applies: NCI60 panel (FIG. 4).
For another data set, the system named is leukemia cell lines. As to the kind of experiment: Leukemia cell lines. It counts as cell-based. The following applies: 55 leukemia cell lines (FIG. 11, 12).
Data set [3] has as its system normal cells (MRC5 lung fibroblasts, Hs27a bone marrow cells). As to the kind of experiment: In vitro toxicity to normal cells. The format is cell-based.
The subject of data set [4] is integrated stress response, Akt/ERK phosphorylation. As to the kind of experiment: Integrated stress response and Akt/ERK phosphorylation. The format is cell-based. The following applies: earlier time points compared to ONC201 (FIG. 9).
A further data set concerns MV411 AML cells. The experiment in a line: MV411 AML xenograft model.
For a further data set, the system named is MV411 (AML). The experiment in a line: Cell viability of MV411 AML cells.
In data set [5] the test system is acute myeloid leukemia (AML) cell lines. The experiment in a line: AML cell lines, in vitro efficacy.
Another data set concerns MOLM14 (AML). As to the kind of experiment: Cell viability of MOLM14 AML cells. The following applies: Homo sapiens, MOLM-14, 72 h.

As for `O=C1C2=C(CCN(Cc3ccccc3)C2)N2CCN=C2N1Cc1ccc(C(F)(F)F)cc1` [ONC212], the “Relative Potency” value with human cancer cells is “A (A Indicates a potency increase of >2-fold of ONC201)”. Moreover, in the data set on HCT116 cells, the cell death entry is listed as “induced cell death”. For the same compound, the anti-cancer efficacy entry in data set [1] is “oral and IP anti-cancer efficacy”; in data set [2], “demonstrated anti-cancer efficacy across various tumor types”; in the data set with leukemia cell lines, “more responsive to ONC212 than ONC201; also recorded: nanomolar range in 55 leukemia cell lines”. For the same compound, the “in vitro toxicity to normal cells” value in data set [3] is reported as “but not normal cells (MRC5); also recorded: non-toxic to normal cells at efficacious concentrations”. In addition, the “integrated stress response and Akt/ERK phosphorylation” value in data set [4] is “induces the integrated stress response and inhibits Akt/ERK phosphorylation at nanomolar concentrations”. Further, the “leukemia xenograft tumor growth” value was “significantly reduced leukemia xenograft tumor growth” with MV411 AML cells (50 mg/kg, oral weekly administration (ONC201 at similar doses)); “not efficacious” with MV411 AML cells (biweekly dosing with 25 mg/kg); “not efficacious” in the data set on MV411 AML cells (weekly/biweekly dosing with 5 mg/kg). Besides, the IC50 in the data set on MV411 (AML) (Homo sapiens, MV4-11, 72 h) is 10 nM; with MOLM14 (AML) it was 10 nM. Besides, the “efficacy in AML cells resistant to cytarabine” value with MV411 (AML) (MV411, 5 nM-5 μM, 24 h (FIG. 14A)) was “efficacious”. Also, the “cell viability after 8 hr exposure” value in data set [5] (250 nM, MOLM14 and MV411 AML cells, viability at 96 h) is given as “robust reduction in cell viability”. Further, the “potency compared to ONC201” value in data set [5] (AML cell lines, Table 4) is “up to 400 fold”.

Broadly, the IC50 is the concentration that gives 50% inhibition.
